What all share (assay type): cell-based
The test system of test [1] is Wnt activity (Sp5-Luc reporter, SW480 colon carcinoma cells). The test is described as follows: Wnt activity screening assay, Sp5-Luc reporter gene in SW480 cells. The conditions noted are these: Homo sapiens; for inhibition at 10 µM: SW480, read-out: percent inhibition at 10 μM; for EC50: Sp5-Luc reporter, SW480 cells, overnight incubation. The procedure, abridged: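 SW480 cells stably transduced with lentiviral Sp5 promoter (eight TCF/LEF sites)-firefly luciferase, plated at 4,000 cells/well in 1% FBS medium and incubated overnight at 37° C. Luminescence read after BrightGlo addition, normalized to DMSO-only cells; EC50 from four-parameter variable-slope nonlinear regression.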
(In general: Reporter assays use an easily measured gene product as a stand-in for the process of interest.)

In test [2] the test system is SW480 colon cancer cells. The test is described as follows: Cell viability assay (CellTiter-Blue), SW480 cells, four days. The note with it: Homo sapiens; for EC50: 96 h, SW480 cell viability, four days, CellTiter-Blue; for inhibition at 10 µM: SW480, read-out: percent inhibition at 10 μM. In short, it runs like this: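 Fluorescence from resazurin reduced to resorufin by metabolically active cells was the read-out, taken after ~3 h with CellTiter-Blue.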
Background: Resazurin is reduced to fluorescent resorufin, in cell work by metabolically active cells.

In test [3] the test system is primary human fibroblasts derived from IPF patients (LL29 cells) treated with TGF-β1. The test is described as follows: Inhibition of the fibrotic process: αSMA staining in TGF-β1 treated LL29 fibroblasts. The conditions noted are these: Fibroblast; for EC50: 96 h, LL29 cells, TGF-β1 20 ng/mL, 4 days, % αSMA positive cells; for inhibition at 10 µM: read-out: percent inhibition at 10 μM. In short, it runs like this:
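IPF-patient-derived LL29 lung fibroblasts in F12 with 1% FBS, stimulated with TGF-β1 alongside compound; TGF-β1 plus DMSO wells served as controls. After 4 days, nuclei stained with 1 μM SYTOX green for 30 min at room temperature, alongside αSMA staining.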

Test [4] relates to primary human mesenchymal stem cells (hMSCs). The test can be described thus: Induction of chondrogenesis in human mesenchymal stem cells (nodule area, Rhodamine B/Nile Red). The note with it: hMSC chondrogenesis; for Emax: relative to TGF-β3 (10 ng/mL) positive control, read-out: Max. Activity as % TGF-β3 activity; for EC50: concentration required to induce 50% levels of chondrogenesis of TGF-β3 positive control, read-out: Conc (nM) of 50% TGF-β3 activity. An excerpt:
Representative compounds were screened using primary human mesenchymal stem cells (hMSCs) to determine their ability to induce chondrogenesis (process by which cartilage is developed).
Primary human mesenchymal stem cells (hMSCs) were purchased from Lonza (Walkersville, Md.) and expanded in Mesenchymal Stem Cell Growth Media (Lonza). Cells between passage 3 and 6 were used for the experiments.
Area of nodules in each well was normalized to the average of 3 DMSO treated wells on the same plate using Excel (Microsoft Inc.). The normalized averages (fold change over DMSO) of 2 or 3 replicate wells for each compound concentration were calculated. Due to solubility limitations of some of the compounds, curve fitting was incomplete leading to inaccurate EC50 determinations.
Using TGF-β3 as a positive control, the concentration of representative compounds required to induce 50% levels of chondrogenesis is reported. In addition, the maximum activity of each compound and the respective dose that each compound reached maximum chondrogenesis activity is reported.

Test [5] has as its system IL-6 (THP-1 human monocyte cell line). The test is described as follows: IL-6 inhibition in LPS-stimulated THP-1 cells (HTRF). The conditions noted are these: for EC50: IL-6 inhibition, LPS-stimulated THP-1 cells, HTRF; for inhibition at 10 µM: THP-1, read-out: percentage in parentheses beside EC50 >10 (IL-6 inhibition). In short, it runs like this:
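THP-1 cells kept 24 h in 1% FBS medium, treated 2 h at 37 °C, then stimulated with 500 ng/mL LPS for another 22 h. IL-6 measured by HTRF as the 665/620 nm ratio; EC50 from a four-parameter fit normalized to DMSO controls.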
A general note: In TR-FRET formats the signal depends on donor and acceptor labels being close together.

For orientation: inhibition means the percentage by which the read-out fell short of the control. For `CCCCC(=O)Nc1cncc(-c2ccc3[nH]nc(-c4cc5c(-c6ccncc6)ccnc5[nH]4)c3c2)c1` [Compound 131, N-(5-(3-(4-(Pyridin-4-yl)-1H-pyrrolo[2,3-b]pyridin-2-yl)-1H-indazol-5-yl)pyridin-3-yl)pentanamide], the inhibition at 10 µM in test [1] came out at 16.7%; in test [2], 10.6%; in test [3], 6.3%; in test [5], 31.5%. The EC50 in test [1], in test [2], in test [3] and in test [5] was above 10000 nM each time. In test [4], the Emax was determined as 18%.

With `O=C(Nc1cncc(-c2ccc3[nH]nc(-c4cc5c(-c6ccncc6)ccnc5[nH]4)c3c2)c1)C1CCC1` [Compound 133, N-(5-(3-(4-(Pyridin-4-yl)-1H-pyrrolo[2,3-b]pyridin-2-yl)-1H-indazol-5-yl)pyridin-3-yl)cyclobutanecarboxamide], the inhibition at 10 µM in test [1] is 2.8%; in test [2], 6.4%; in test [3] it was 0%; in test [5], 33.3%. Also, the EC50 in test [1] is above 10000 nM; in test [2] it was above 10000 nM; in test [3], above 10000 nM; in test [4], 900 nM; in test [5], above 10000 nM. In addition, in test [4], the Emax was 73%.

For `c1cc(-c2ccnc3[nH]c(-c4n[nH]c5ccc(-c6cncnc6)cc45)cc23)ccn1` [Compound 139, 3-(4-(Pyridin-4-yl)-1H-pyrrolo[2,3-b]pyridin-2-yl)-5-(pyrimidin-5-yl)-1H-indazole], the inhibition at 10 µM was found to be 7.5% in test [1], 5.3% in test [2], 14.5% in test [3] and 43.1% in test [5]. For the same compound, the EC50 in test [1], in test [2], in test [3] and in test [5] was above 10000 nM throughout. The Emax in test [4] stood at 17%.

`Nc1cncc(-c2ccc3[nH]nc(-c4cc5c(-c6ccccn6)ccnc5[nH]4)c3c2)c1` [Compound 143, 5-(3-(4-(Pyridin-2-yl)-1H-pyrrolo[2,3-b]pyridin-2-yl)-1H-indazol-5-yl) pyridin-3-amine]: the EC50 in test [1] was determined as 22 nM; in test [2], 89 nM; in test [3], 45 nM; in test [5] it was 83 nM. Moreover, the Emax in test [4] stood at 46%.

Take `CN(C)c1cncc(-c2ccc3[nH]nc(-c4cc5c(-c6ccccn6)ccnc5[nH]4)c3c2)c1` [Compound 147, N,N-Dimethyl-5-(3-(4-(pyridin-2-yl)-1H-pyrrolo[2,3-b]pyridin-2-yl)-1H-indazol-5-yl)pyridin-3-amine]: the inhibition at 10 µM in test [1] amounted to 13.7%; in test [2], 15.4%; in test [3] it was 34%; in test [5], 30.5%. The EC50 was above 10000 nM in test [1]; above 10000 nM in test [2]; above 10000 nM in test [3]; 10 nM in test [4]; above 10000 nM in test [5]. For the same compound, the Emax in test [4] was 77%.

For `Nc1cncc(-c2ccc3[nH]nc(-c4cc5c(N6CCCCC6)ccnc5[nH]4)c3c2)c1` [Compound 171, 5-(3-(4-(Piperidin-1-yl)-1H-pyrrolo[2,3-b]pyridin-2-yl)-1H-indazol-5-yl) pyridin-3-amine], the EC50 in test [1] was found to be 604 nM; in test [2], 1230 nM; in test [3], 1720 nM; in test [4], 30 nM; in test [5] it was 622 nM. In addition, the Emax in test [4] was found to be 130%.

On to `c1cncc(-c2ccc3[nH]nc(-c4cc5c(N6CCCCC6)ccnc5[nH]4)c3c2)c1` [Compound 172, 3-(4-(Piperidin-1-yl)-1H-pyrrolo[2,3-b]pyridin-2-yl)-5-(pyridin-3-yl)-1H-indazole], for which the inhibition at 10 µM was determined as 48.2% in test [1], 8.9% in test [2], 25.1% in test [3] and 31.8% in test [5]. In addition, the EC50 in test [1] is above 10000 nM; in test [2], above 10000 nM; in test [3], above 10000 nM; in test [4] it was 2700 nM; in test [5], above 10000 nM. For the same compound, the Emax in test [4] amounted to 162%.

`c1cc(N2CCCCC2)c2cc(-c3n[nH]c4ccc(-c5cncc(CN6CCCC6)c5)cc34)[nH]c2n1` [Compound 182, 3-(4-(Piperidin-1-yl)-1H-pyrrolo[2,3-b]pyridin-2-yl)-5-(5-(pyrrolidin-1-ylmethyl)pyridin-3-yl)-1H-indazole]: in test [1], the inhibition at 10 µM came out at 36%. Further, the EC50 in test [1] was above 10000 nM; in test [2], 4080 nM; in test [3], 7760 nM; in test [5] it was 315 nM. Moreover, the Emax in test [4] was found to be 21%.

Turning to `CN1CCN(c2ccnc3[nH]c(-c4n[nH]c5ccc(-c6cncc(N)c6)cc45)cc23)CC1` [Compound 227, 5-(3-(4-(4-Methylpiperazin-1-yl)-1H-pyrrolo[2,3-b]pyridin-2-yl)-1H-indazol-5-yl)pyridin-3-amine], the EC50 in test [1] is 1170 nM; in test [2] it was above 10000 nM; in test [3] it was above 10000 nM; in test [4] it was 100 nM; in test [5], 7340 nM. Besides, the inhibition at 10 µM came out at 42.3% in test [2] and 51.2% in test [3]. Moreover, the Emax in test [4] was 50%.

For `CN1CCN(c2ccnc3[nH]c(-c4n[nH]c5ccc(-c6cncc(CN7CCCC7)c6)cc45)cc23)CC1` [Compound 238, 3-(4-(4-Methylpiperazin-1l-yl)-1H-pyrrolo[2,3-b]pyridin-2-yl)-5-(5-(pyrrolidin-1-ylmethyl)pyridin-3-yl)-1H-indazole], the EC50 in test [1] is 3480 nM; in test [2], 4340 nM; in test [3], 1920 nM; in test [5], above 10000 nM. Also, in test [4], the Emax worked out at 22%. Besides, in test [5], the inhibition at 10 µM is 29.4%.

With `CN1CCN(c2ccnc3[nH]c(-c4n[nH]c5ccc(-c6cncc(CNCc7ccccc7)c6)cc45)cc23)CC1` [Compound 248, N-Benzyl-1-(5-(3-(4-(4-methylpiperazin-1-yl)-1H-pyrrolo[2,3-b]pyridin-2-yl)-1H-indazol-5-yl)pyridin-3-yl)methanamine], the EC50 in test [1] was 3370 nM; in test [2], 2170 nM; in test [3], 2260 nM; in test [5], 7730 nM. In addition, in test [4], the Emax came out at 17%.

On to `Nc1cncc(-c2ccc3[nH]nc(-c4cc5cccnc5[nH]4)c3c2)c1` [Compound 255, 5-(3-(1H-Pyrrolo[2,3-b]pyridin-2-yl)-1H-indazol-5-yl)pyridin-3-amine], for which the EC50 was determined as 102 nM in test [1], 632 nM in test [2], 138 nM in test [3] and 15 nM in test [5]. In addition, in test [4], the Emax amounted to 36%.

For the compound `CC(C)C(=O)Nc1cncc(-c2ccc3[nH]nc(-c4cc5cccnc5[nH]4)c3c2)c1` [Compound 261, N-(5-(3-(1H-Pyrrolo[2,3-b]pyridin-2-yl)-1H-indazol-5-yl)pyridin-3-yl) isobutyramide], the EC50 in test [1] was found to be 178 nM; in test [2], 405 nM; in test [3], 102 nM; in test [4] it was 900 nM; in test [5], 9 nM. Besides, the Emax in test [4] came out at 131%.

Take `c1cnc2[nH]c(-c3n[nH]c4ccc(-c5cncc(CN6CCCCC6)c5)cc34)cc2c1` [Compound 267, 5-(5-(Piperidin-1-ylmethyl)pyridin-3-yl)-3-(1H-pyrrolo[2,3-b]pyridin-2-yl)-1H-indazole]: the EC50 in test [1] was determined as 1670 nM; in test [2], 675 nM; in test [3] it was 458 nM; in test [4] it was 10 nM; in test [5] it was 177 nM. The Emax in test [4] stood at 51%.

Consider `CCCCC(=O)Nc1cncc(-c2ccc3[nH]nc(-c4cc5cccnc5[nH]4)c3c2)c1` [Compound 271, N-(5-(3-(1H-Pyrrolo[2,3-b]pyridin-2-yl)-1H-indazol-5-yl)pyridin-3-yl) pentanamide], for which the EC50 in test [1] came to 324 nM; in test [2], 1060 nM; in test [3] it was 712 nM; in test [5] it was 23 nM. Also, the Emax in test [4] amounted to 34%.

The values above are taken from US10350199B2, “3-(1h-pyrrolo[2,3-b]pyridin-2-yl)-1h-indazoles and therapeutic uses thereof” (Samumed, LLC, priority 2015, dated 2019).
